Values quoted from earlier work as cited in patent publication US20130280331A1, “Depot Compositions with multiple drug release rate controls and uses thereof” (Durect Corporation, priority 2001, published 2013).

Structure (SMILES): CC(=O)OCC(COC(C)=O)OC(C)=O [triacetin]
- reported solubility in water: 7.17 grams in 100 ml of water
